One series concerns the target HiDapE (Haemophilus influenzae, UniProt P44514). Kind of series: DapE inhibition, ninhydrin-based assay. Type of series: biochemical. The note with it: for inhibition at 100 µM: 100 µM inhibitor, read-out: DapE % Inhib at 100 µM; for IC50: ninhydrin assay. Here is the method: All compounds were screened for DapE inhibitory potency using a ninhydrin-based assay at 100 μM, and IC50 values were determined for molecules that inhibited DapE > 70% at 100 μM (Table 1). Some SAR trends emerge from the data.
Experimental IC50 curves for cyclobutanone inhibitors against DapE were identified as sigmoidal shaped response curves, as opposed to simple hyperbolic plots. […] IC50 curves with the corresponding Hill coefficients are reported in the Supplementary Materials as Figures S74−S81. Experimental Hill coefficients may provide information on the number of binding sites of a biological target (receptors and enzymes) interacting with ligands.
The inhibition of HiDapE by potential inhibitors was assessed using the previously developed ninhydrin assay with slight modifications. It was performed in a PCR Thermal Cycler System. All experiments were performed in triplicate in 50 mM HEPES buffer at pH 7.5. Reaction volumes were 100 µL of 2 mM N^6-Methyl-L,L-SDAP and 8 nM HiDapE. Ninhydrin was purchased as a 2% solution in 100% DMSO/lithium acetate buffer at pH 5.2. The inhibitor, followed by HiDapE, was added to a 50 mM HEPES (pH 7.5) buffered solution at 30 °C, and the mixture was incubated at 30 °C for 10 min. N^6-Methyl-L,L-SDAP was added, and the reaction mixture was incubated at 30 °C for 10 min, then heated to 99 °C for 1 min, and further cooled to 0 °C for 1 min. The 2% ninhydrin solution (50 µL) was added, and the mixture was thoroughly mixed. The reaction mixture was heated to 80 °C for 15 min, then cooled to 0 °C for 1 min. The absorbance of an 80 μL aliquot was recorded at 570 nm on a BioTek Synergy 2 microplate reader. All the inhibition assays of HiDapE were performed in triplicate and the IC50 values were obtained by fitting the data following the modified Hill equation: V = V0 + (Vmax − V0) XnH/(XnH0.5 + XnH) using the graphing suite Origin 9.1 with the Levenberg–Marquardt non-linear least-squares algorithm. The velocity in the absence of the substrate is […]; the velocity at saturating concentrations of the substrate or with no inhibitor for the inhibition assay is Vmax; X is the concentration of the substrate or inhibitor; and X0.5 is the substrate (S0.5) and inhibitor (I0.5) concentration at 50% maximum velocity and at 50% inhibition, respectively. The Hill coefficient is represented as nH.

SMILES strings stand for the structures. Where only a bound is given, the exact number is not on record here.

In publication PMC10815964, “Cyclobutanone Inhibitors of Diaminopimelate Desuccinylase (DapE) as Potential New Antibiotics” (International Journal of Molecular Sciences, 2024) one finds inhibition, IC50 and melting point data, which are given here for 35 compounds.

HiDapE, sequence (P44514 whole entry): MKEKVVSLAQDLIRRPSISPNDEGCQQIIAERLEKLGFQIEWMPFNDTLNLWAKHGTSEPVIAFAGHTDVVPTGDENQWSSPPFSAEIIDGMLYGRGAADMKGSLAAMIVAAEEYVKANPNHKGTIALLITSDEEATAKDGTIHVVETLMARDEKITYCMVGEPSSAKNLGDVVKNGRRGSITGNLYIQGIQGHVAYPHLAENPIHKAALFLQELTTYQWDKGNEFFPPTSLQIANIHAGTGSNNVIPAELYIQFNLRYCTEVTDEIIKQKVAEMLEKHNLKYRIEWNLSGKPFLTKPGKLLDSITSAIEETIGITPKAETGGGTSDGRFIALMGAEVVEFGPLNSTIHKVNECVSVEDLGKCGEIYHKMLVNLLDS

As for `O=C1CCC1NS(=O)(=O)c1ccc(F)cc1` (stereo not shown) [3ai, N-(2-Oxocyclobutyl)-4-(fluoro)benzenesulfonamide], at HiDapE, the inhibition at 100 µM came out at 72.9% and the concentration for half-maximal inhibition (IC50) was 53.3 ± 5.4 µM.
The compound `Cc1cccc(C(=O)NC2CCC2=O)c1` (stereo not shown) [3b, 3-Methyl-N-(2-oxocyclobutyl)benzamide] yielded a melting point of 94 to 96 °C. Also, the inhibition at 100 µM on HiDapE was determined as 37.8%.
In turn, `COc1ccc(C(=O)NC2CCC2=O)cc1Cl` (stereo not shown) [3g, 3-Chloro-4-methoxy-N-(2-oxocyclobutyl)benzamide] had a melting point of 134 to 136 °C. The inhibition at 100 µM at HiDapE worked out at 29.1%.
In the case of `COc1cc(Cl)c(C(=O)NC2CCC2=O)cc1OC` (stereo not shown) [3h, 2-Chloro-4,5-dimethoxy-N-(2-oxocyclobutyl)benzamide], the melting point is 123 to 125 °C. In addition, the inhibition at 100 µM on HiDapE was 24.4%.
Turning to `O=C(NC1CCC1=O)c1cccnc1` (stereo not shown) [3m, N-(2-Oxocyclobutyl)nicotinamide], the inhibition at 100 µM on HiDapE turned out to be 24.9%.
In turn, `CC(C)[C@@H](NS(=O)(=O)c1ccc(O)cc1)C(=O)NC1CCC1=O` (mixture of isomers) [3ac, (2R)-2-((4-hydroxyphenyl)sulfonamido)-3-methyl-N-(2-oxocyclobutyl)butanamide] registered a melting point of 139 to 141 °C. The inhibition at 100 µM on HiDapE amounted to 44.4%.
The compound `COC(=O)c1ccc(S(=O)(=O)N[C@@H](C(=O)NC2CCC2=O)C(C)C)cc1` (mixture of isomers) [3ab, Methyl 4-(N-((2R)-3-methyl-1-oxo-1-((2-oxocyclobutyl)amino)butan-2-yl)sulfamoyl)benzoate] showed a melting point of 190 to 191 °C. Further, the inhibition at 100 µM on HiDapE came to 10.7%.
On to `CC(C)[C@H](NC(=O)OCc1ccccc1)C(=O)NC1CCC1=O` (mixture of isomers) [3ag, Benzyl ((2S)-3-methyl-1-oxo-1-((2-oxocyclobutyl)amino)butan-2-yl)carbamate], for which, at HiDapE, the inhibition at 100 µM stood at 53.9%.
For the compound `Cc1ccc(S(=O)(=O)N[C@H](Cc2ccccc2)C(=O)NC2CCC2=O)cc1` (mixture of isomers) [3w, (2R)-2-((4-Methylphenyl)sulfonamido)-N-(2-oxocyclobutyl)-3-phenylpropanamide], on HiDapE, the inhibition at 100 µM was found to be 55% and the IC50 is greater than 50 µM.
In the case of `COc1cccc(CC(=O)NC2CCC2=O)c1` (stereo not shown) [3s, 2-(3-Methoxyphenyl)-N-(2-oxocyclobutyl)acetamide], the melting point lay in the range of 104 to 105 °C. In addition, the inhibition at 100 µM on HiDapE was found to be 27%.
Turning to `O=C(N[C@@H](Cc1ccccc1)C(=O)NC1CCC1=O)OCc1ccccc1` (mixture of isomers) [3ad, Benzyl ((2S)-1-oxo-1-((2-oxocyclobutyl)amino)-3-phenylpropan-2-yl)carbamate], on HiDapE, the inhibition at 100 µM was 96.2% and the IC50 turned out to be 69.8 ± 1.4 µM.
`O=C(NC1CCC1=O)c1cccc(Cl)c1` (stereo not shown) [3e, 3-Chloro-N-(2-oxocyclobutyl)benzamide] returned a melting point of 64 to 66 °C. Besides, the inhibition at 100 µM on HiDapE was determined as 45.8%.
With `Cc1ccc(S(=O)(=O)N[C@@H](Cc2c[nH]c3ccccc23)C(=O)NC2CCC2=O)cc1` (mixture of isomers) [3x, (2S)-3-(1H-Indol-3-yl)-2-((4-methylphenyl)sulfonamido)-N-(2-oxocyclobutyl)propanamide], the inhibition at 100 µM at HiDapE was found to be 19.6%.
With `O=C1CCC1NS(=O)(=O)c1ccc(C(F)(F)F)cc1` (stereo not shown) [3ah, N-(2-Oxocyclobutyl)-4-(trifluoromethyl)benzenesulfonamide], the melting point fell in the range of 74 to 76 °C. On HiDapE, the inhibition at 100 µM is 22.6%.
In the case of `Cc1ccc(S(=O)(=O)N[C@@H](Cc2ccccc2)C(=O)NCC(C)(C)O)cc1` [4b, (S)-N-(2-hydroxy-2-methylpropyl)-2-((4-methylphenyl)sulfonamido)-3-phenylpropanamide], the inhibition at 100 µM at HiDapE is 19.1%.
`O=C(CCc1nc2ccccc2[nH]1)NC1CCC1=O` (stereo not shown) [3u] yielded a melting point of 179 to 181 °C. Further, at HiDapE, the inhibition at 100 µM turned out to be 84.7% and the half-inhibitory concentration (IC50) was 52.4 ± 7.4 µM.
Take `O=C(NC1CCC1=O)c1cccnc1Cl` (stereo not shown) [3n, 2-Chloro-N-(2-oxocyclobutyl)nicotinamide]: the melting point lay within 80 to 82 °C. Also, the inhibition at 100 µM at HiDapE is less than 5%.
Compound `O=C(NC1CCC1=O)c1ccc(Br)cc1` (stereo not shown) [3f, 4-Bromo-N-(2-oxocyclobutyl)benzamide] had a melting point of 104 to 105 °C. Moreover, the inhibition at 100 µM at HiDapE came out at 25.2%.
In the case of `COc1cc(C(=O)NC2CCC2=O)cc(OC)c1OC` (stereo not shown) [3k, 3,4,5-Trimethoxy-N-(2-oxocyclobutyl)benzamide], the melting point is 144 to 146 °C. Also, at HiDapE, the inhibition at 100 µM turned out to be 93.7% and the IC50 amounted to 39.6 ± 2.9 µM.
For the compound `O=C(NC1CCC1=O)c1ccccn1` (stereo not shown) [3l, N-(2-Oxocyclobutyl)picolinamide], the melting point was in the range of 97 to 99 °C. Further, at HiDapE, the inhibition at 100 µM was 25.6%.
On to `O=C(N[C@H](Cc1ccccc1)C(=O)NC1CCC1=O)OCc1ccccc1` (mixture of isomers) [3ae, Benzyl ((2R)-1-oxo-1-((2-oxocyclobutyl)amino)-3-phenylpropan-2-yl)carbamate], for which, on HiDapE, the inhibition at 100 µM came out at 97.9% and the IC50 was found to be 55.4 ± 5.5 µM.
Compound `O=C(Cc1ccc(Br)cc1)NC1CCC1=O` (stereo not shown) [3t, 2-(4-Bromophenyl)-N-(2-oxocyclobutyl)acetamide] registered a melting point of 124 to 127 °C. Further, on HiDapE, the inhibition at 100 µM worked out at 59%.
In turn, `O=C(NC1CCC1=O)c1ccccc1O` (stereo not shown) [3i, 2-Hydroxy-N-(2-oxocyclobutyl)benzamide] showed a melting point of 149 to 151 °C. In addition, the inhibition at 100 µM at HiDapE was 28.9%.
`Cc1ccc(C(=O)NC2CCC2=O)cc1` (stereo not shown) [3c, 4-Methyl-N-(2-oxocyclobutyl)benzamide] gave a melting point of 149 to 150 °C. Also, the inhibition at 100 µM on HiDapE was found to be 58.1%.
In turn, `COc1ccc(C(=O)NC2CCC2=O)c(O)c1` (stereo not shown) [3j, 2-Hydroxy-4-methoxy-N-(2-oxocyclobutyl)benzamide] had a melting point of 131 to 133 °C. At HiDapE, the inhibition at 100 µM turned out to be 73% and the IC50 amounted to 66.4 ± 2.9 µM.
As for `O=C(NC1CCC1=O)c1ccccc1Cl` (stereo not shown) [3d, 2-Chloro-N-(2-oxocyclobutyl)benzamide], the melting point is 102 to 103 °C. In addition, at HiDapE, the inhibition at 100 µM is 33.6%.
`O=C(N[C@@H](Cc1ccc(O)cc1)C(=O)NC1CCC1=O)OCc1ccccc1` (mixture of isomers) [3af, Benzyl ((2S)-3-(4-hydroxyphenyl)-1-oxo-1-((2-oxocyclobutyl)amino)propan-2-yl)carbamate]: the inhibition at 100 µM at HiDapE amounted to 15.5%.
Consider `O=C(NC1CCC1=O)c1ccncc1` (stereo not shown) [3p, N-(2-Oxocyclobutyl)isonicotinamide], for which the melting point lay in the range of 119 to 121 °C. Also, at HiDapE, the inhibition at 100 µM was less than 5%.
Consider `Cc1ccc(S(=O)(=O)N[C@@H](Cc2ccccc2)C(=O)NC2CCC2=O)cc1` (mixture of isomers) [3v, (2S)-2-((4-Methylphenyl)sulfonamido)-N-(2-oxocyclobutyl)-3-phenylpropanamide], for which, on HiDapE, the inhibition at 100 µM worked out at 92.8% and the IC50 stood at 45.7 ± 1.5 µM.
For `Cc1ccc(S(=O)(=O)N[C@@H](Cc2ccccc2)C(=O)NCC2(O)CC2)cc1` [4a, (S)-N-((1-hydroxycyclopropyl)methyl)-2-((4-methylphenyl)sulfonamido)-3-phenylpropanamide], at HiDapE, the inhibition at 100 µM came to 36.4%.
`O=C(NC1CCC1=O)c1cnc2ccccc2c1` (stereo not shown) [3q, N-(2-Oxocyclobutyl)quinoline-3-carboxamide] came in with a melting point of 155 to 156 °C. Besides, the inhibition at 100 µM on HiDapE was 48%.
As for `Cc1ccccc1C(=O)NC1CCC1=O` (stereo not shown) [3a, 2-Methyl-N-(2-oxocyclobutyl)benzamide], the melting point was in the range of 100 to 102 °C. Also, the inhibition at 100 µM at HiDapE stood at 16.8%.
As to `O=C(NC1CCC1=O)c1cncc(Br)c1` (stereo not shown) [3o, 5-Bromo-N-(2-oxocyclobutyl)nicotinamide], the melting point lay in the range of 114 to 115 °C. Further, the inhibition at 100 µM at HiDapE came to 34.6%.
`COc1ccc(S(=O)(=O)N[C@H](C(=O)NC2CCC2=O)C(C)C)cc1` (mixture of isomers) [3z, (2S)-2-((4-Methoxyphenyl)sulfonamido)-3-methyl-N-(2-oxocyclobutyl)butanamide] returned a melting point of 179 to 181 °C. Moreover, the inhibition at 100 µM on HiDapE turned out to be 30.7%.
On to `CC(C)[C@@H](NS(=O)(=O)c1ccc(C#N)cc1)C(=O)NC1CCC1=O` (mixture of isomers) [3aa, (2R)-2-((4-Cyanophenyl)sulfonamido)-3-methyl-N-(2-oxocyclobutyl)butanamide], for which the melting point fell in the range of 150 to 151 °C. Besides, the inhibition at 100 µM on HiDapE was 5.6%.
